Here are results for 33 molecules from a melting point compilation (Tetko et al.; mined from patent text by program, amines drawn as free bases though some values may be those of a salt).

For orientation: melting point means the temperature, or range, at which the solid turns liquid. The molecule `O=C(O)c1cc(Cl)ccc1OC1CCOC1=O` (stereo not drawn) showed a melting point of 159 to 160 °C.

As for `CCc1nc(Cl)c(C(=O)NC)n1Cc1ccc2oc(-c3ccccc3N)c(Br)c2c1`, the melting point was in the range of 68 to 70 °C.

On to `COc1ccc(-c2nc3ncn(C)c(=S)n3n2)cc1`, for which the melting point is above 300 °C.

Turning to `CCS(=O)(=O)c1nsc(NC(=O)NC)c1C(N)=O`, the melting point is 219 to 220 °C.

For the molecule `CCCCCC1(Cl)Cc2cc(OCC(=O)O)c(Cl)c(Cl)c2C1=O` (stereo not drawn), the melting point lay within 122 to 124 °C.

For `O=S(=O)(c1ccccc1)c1ncc(Cl)cn1`, the melting point was determined as 103 °C.

Regarding `CC(C)(C)OC(=O)c1ccc(OCCNC(=O)C2Cc3ccccc3N2S(=O)(=O)c2ccc(-c3ccc(F)cc3OC(F)F)cc2)cc1` (stereo not drawn), the melting point fell in the range of 60 to 70 °C.

For the molecule `CN1CCC[C@H]1c1cnc(Cl)cc1C(O)c1cc(Cl)ncc1[C@@H]1CCCN1C`, the melting point lay in the range of 80 to 82 °C.

Consider `COc1ccc(C(=O)n2c3c(c4cc(C)ccc42)CC(C(=O)O)CC3)cc1` (stereo not drawn), for which the melting point fell in the range of 172 to 173 °C.

Consider `O=C(O)c1ccc(CNS(=O)(=O)c2ccc(F)cc2)cc1`, for which the melting point fell in the range of 231 to 234 °C.

`COc1cc(Nc2nccc(-c3ccc[nH]3)n2)cc(OC)c1OC` gave a melting point of 150 °C.

Molecule `COc1ccc(CCN2CCC(=C3c4ccn(C)c4CCn4ncnc43)CC2)cc1` gave a melting point of 139 °C.

`Cc1ccccc1C(C)Oc1cc(OCc2ccsc2)ccc1C(=O)CC(=O)C(=O)O` (racemic): the melting point lay in the range of 124 to 126 °C.

As to `Clc1ccc(C(=Cn2cncn2)c2ccc(Cl)cc2)cc1`, the melting point was in the range of 126 to 128 °C.

In turn, `COc1cc2c(cc1C(C)=O)CCCC2C` (stereo not drawn) yielded a melting point of 48 to 50 °C.

For `Clc1ccccc1OCC1(c2ccccc2)CCN(Cc2ccccc2)CCO1` (stereo not drawn), the melting point lay in the range of 114 to 115 °C.

Molecule `COc1cc2c(-c3cc4cccnc4[nH]3)cn(C)c2cc1OC(C)C` gave a melting point of 216 °C.

The molecule `C#Cc1ccc2c(c1)C(Cc1ccnc(F)c1)(Cc1ccnc(F)c1)c1cccnc1-2` showed a melting point of 139 to 140 °C.

In turn, `CC1(C)CN(CC2COc3ccccc3C2)c2nc(-c3ccncn3)cc(=O)n2C1` (racemic) registered a melting point of 84 to 86 °C.

`c1c2c(nc3c1CCCCC3)CCCCC2` yielded a melting point of 179 °C.

`CC(=O)NCC1CN=C(c2cc3cccc(N(C)S(=O)(=O)c4cccs4)c3[nH]2)S1` (stereo not drawn) yielded a melting point of 212 to 213 °C.

In turn, `CC(=O)OC1C(OC(=O)C=Cc2ccccc2)C=C(C)C(=O)CC1(C)C` (stereo not drawn) returned a melting point of 138 to 139 °C.

Turning to `O=C(O)CCCc1ccc(C(Cc2ccccc2)NS(=O)(=O)c2ccc(Cl)cc2)cc1` (stereo not drawn), the melting point lay in the range of 152 to 153 °C.

In the case of `C1=CCN(C(c2ccccc2)c2ccccc2)C1`, the melting point lay in the range of 90 to 91 °C.

In the case of `C=C(c1ccc(Br)cc1)c1ccc(N(C)C)cc1`, the melting point lay in the range of 126 to 127 °C.

Regarding `O=[N+]([O-])c1ccc2nc(-c3ccco3)[nH]c2c1`, the melting point lay within 228 to 229 °C.

`COC(=O)C(CCSC)NC(=O)c1ccc(NCC2CC(O[Si](C)(C)C(C)(C)C)CN2C(=O)OC(C)(C)C)cc1-c1ccccc1` (stereo not drawn) displayed a melting point of 48 °C.

On to `COc1cccc(CNC(=O)c2nc3cccc(OCc4ccc(C#N)cc4)c3c(=O)[nH]2)c1`, for which the melting point is 218 to 220 °C.

For the molecule `CCOC(=O)c1ccc(NCCCCCCCc2ccccc2)cc1`, the melting point is 65 to 67 °C.

The molecule `Cc1ccccc1/C=C/c1c(C(C)C)nc(C(C)C)c(CO)c1-c1ccc(F)cc1` gave a melting point of 108 to 111 °C.

Consider `Cc1cccc(-c2ccccc2)c1NC(=S)NC(=O)c1ccccc1`, for which the melting point fell in the range of 172 to 173 °C.

In turn, `O=C(NCCNCc1cc2ccc(O)cc2o1)C12CC3CC(CC(C3)C1)C2` gave a melting point of 136 to 139 °C.

The molecule `CC(C)CC1(C(CCN2C(=O)c3ccc(F)cc3C2=O)C(=O)NO)CCN(CCc2ccccc2)C1=O` (stereo not drawn) had a melting point of 143 to 144 °C.
